Results taken from patent US5608081A, “Hydroxymethylpolythiophene derivatives” (Industrial Technology Research Institute, priority 1995, dated 1997).

Assay: Anti-edema activity, conventional toe edema method using carrageenan as pyrogen and indomethacin as control inhibitory agent
Type: in vivo
Conditions: inhibition rate above 30% considered also antiinflammatory
Procedure: The anti-edema activity was tested according to the conventional toe edema method using carrageenan as pyrogen and indomethacin as control inhibitory agent. See C. A. Winter, E. A. Risley and G. W. Nuss, Biol. Med., 111, 544 (1962); and A. P. Roszkowshi, W. H. Rooks II, A. J. Tomolonis and L. M. Miller, J. Pharmacol. Exp. Ther., 179, 114 (1971), both of which are hereby incorporated by reference.
In general, polythiophene derivatives of this invention have shown significant anti-edema activity.

Compound | Anti-edema effect, inhibition rate (dosage 10 mg/kg) [%] | Anti-edema effect, inhibition rate (dosage 50 mg/kg) [%] | Anti-edema effect, inhibition rate (dosage 100 mg/kg) [%] | Anti-edema effect, inhibition rate (dosage 200 mg/kg) [%]
OCc1ccc(-c2ccc(CO)s2)s1 | 26 | 34 | 37 | 41
CC(=O)OCc1ccc(-c2ccc(COC(C)=O)s2)s1 | – | 17 | 28 | 28
OCCC#Cc1ccc(-c2cccs2)s1 | – | 32 | 36 | 38
